# From US20040009904A1, “APL immunoreactive peptides, conjugates thereof and methods of treatment for aPL antibody-mediated pathologies” (priority 1995, published 2004)
# Bridge positions count the residues as written; N and C are the ends. Peptide text beside a SMILES is read from it.
# Experiments:
# ACA-6501 = test: Competitive binding peptide ACA ELISA, cardiolipin/β2-GPI-coated plates; set-up: species or system human; details: peptide 1 mg/mL, affinity purified antibody
# In short: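 Monomeric peptides at several amounts were preincubated ~1 h at RT with ACA-6501 serum (final 1:400), then added to cardiolipin-coated, fish-gelatin-blocked plates with β2-GPI for 1 h at RT. Bound IgG was detected with alkaline phosphatase anti-human IgG and phenolphthalein monophosphate, read at 550 nm. IC50 was the peptide amount at half-maximal absorbance.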
# ACA-6626 = test: as above; set-up: species or system human; details: peptide 1 mg/mL, affinity purified antibody
# In short: (§1)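 Monomeric peptides are tested for their ability to block aPL antibody binding to β2-GPI/cardiolipin-coated wells, with IgG-depleted human serum providing β2-GPI. The concentration giving 50% inhibition is taken at half-maximal absorbance (550 nm).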
# ACA-6638 = test: as above; set-up: species or system human; details: peptide 1 mg/mL, affinity purified antibody
# In short: as §1
# ACA-6641 = test: as above; set-up: species or system human; details: peptide 1 mg/mL, affinity purified antibody
# In short: as §1
# ACA-6644 = test: as above; set-up: species or system human; details: peptide 1 mg/mL, affinity purified antibody
# In short: as §1
# ACA-6701 [1] = test: as above; set-up: species or system human; details: peptide 1 mg/mL, affinity purified antibody
# In short: as §1
# ACA-7005 = test: as above; set-up: species or system human; details: peptide 1 mg/mL, affinity purified antibody
# In short: as §1
# ACA antibodies = test: Competitive binding peptide ACA ELISA, cardiolipin/β2-GPI-coated plates, panel of ACA antibodies (average); set-up: species or system human; details: peptide 1 mg/mL, average over nine antibodies
# In short: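 Monomeric peptides at several concentrations were preincubated with aPL antibody, then added to cardiolipin-coated, fish-gelatin-blocked plates with IgG-depleted human serum as β2-GPI source, 1 h at RT. Bound IgG detected with alkaline phosphatase anti-human IgG and phenolphthalein monophosphate, A550; IC50 read at half-maximal absorbance.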
# ACA-6701 [2] = test: Competitive fluorescence polarization assay (cFP); format: binding, human
# Description: The above described dbFP assay provides binding constants for FITC-labeled peptides and requires on the order of 0.5 mg of purified antibody. The cFP assay provides binding constants for peptides that lack the FITC group and it consumes less antibody, on the order of 10 μg. The cFP assay is modified from that reported in PanVera Applications Guide (1994) PanVera Corporation such that it consumes 50-fold less antibody. Briefly, antibody (ACA 6701) is mixed with trace FITC labeled peptide (CB2*-F) and enough time is allowed for equilibrium to be reached. This was 1 hour for ACA 6701 and CB2*-F. Increasing concentrations of the unlabeled peptide being tested (CB2* or 3B10) are then added to the tube. After each addition, sufficient time, approximately 15 minutes, is allowed for equilibrium to be reached and the mP value was read. […] This Δ(mP) value should be 20 or more mP units to insure reliable results.
# As unlabeled (no FITC) peptide (I) is added to inhibit F from binding to R, Y decreases from its maximum value of PH′ to a plateau of PL which should agree with that in Equation 1. These titrations are shown in FIGS. 26 and 27 for displacement of CB2*-F from ACA-6701 by CB2* and 3B10, respectively. The equation describing this titration was derived and is: [formula]
# where PL is the same as in Equation 1. […]
structure (smiles),measurement,setting,value
"CC(C)C[C@@H]1NC(=O)[C@H](CC(C)C)NC(=O)[C@H](CC(C)C)NC(=O)[C@@H](NC(=O)[C@@H]2CCCN2C(=O)CNC(=O)[C@H](C)N)CSSC[C@@H](C(=O)N2CCC[C@H]2C(=O)NCC(=O)O)NC(=O)[C@H](CCCNC(=N)N)NC(=O)[C@H](CC(=O)O)NC(=O)[C@@H]2CCCN2C(=O)[C@H](C)NC1=O [3B10, AGPCLLLAPDRCPG] (H-AGPCLLLAPDRCPG-OH; disulfide 4-12)","Percent Inhibition of AffACA by Peptide Monomers, 6501",ACA-6501,60%
same,"Percent Inhibition of AffACA by Peptide Monomers, 6626",ACA-6626,76%
same,"Percent Inhibition of AffACA by Peptide Monomers, 6638",ACA-6638,87%
same,"Percent Inhibition of AffACA by Peptide Monomers, 6641",ACA-6641,52%
same,"Percent Inhibition of AffACA by Peptide Monomers, 6644",ACA-6644,55%
same,"Percent Inhibition of AffACA by Peptide Monomers, 6701",ACA-6701 [1],51%
same,"Percent Inhibition of AffACA by Peptide Monomers, 7005",ACA-7005,47%
same,"Percent Inhibition of AffACA by Peptide Monomers, Ave.",ACA antibodies,65%
same,Ki,"ACA-6701 [2]; cFP, displacement of CB2*-F from ACA-6701",313 nM
same,binding to ACA-6701 less than binding of CB2*,ACA-6701 [2]; versus CB2*,9 fold
